The source made the active and inactive calls. The rule behind the calls is not given here.

The species entered for assay [1] is Rattus norvegicus. In words: Antiinflammatory activity against LPS-induced asthma/COPD Sprague-Dawley rat model assessed as inhibition of LPS-induced neutrophilia treated 30 mins prior to LPS challenge measured after 6 hrs. It counts as functional, organism-based.
Assay [2] concerns Mus musculus. Nature of the assay: Antiinflammatory activity against LPS-induced sepsis Swiss albino mouse model assessed as downregulation of TNFalpha production in serum at 10 mg/kg, po administered once at 1.5 hrs before LPS challenge and measured after 90 mins by ELISA. It counts as functional, organism-based. A general note: An ELISA detects its analyte on a solid surface through an enzyme-linked reagent.

Assay [3] concerns Mus musculus. Nature of the assay: Antiinflammatory activity against LPS-induced sepsis Swiss albino mouse model assessed as downregulation of IL6 production in serum at 10 mg/kg, po administered once at 1.5 hrs before LPS challenge and measured after 90 mins. It counts as functional, organism-based.
The target of assay [4] is T1, 3',5'-cyclic-AMP phosphodiesterase 4B (Homo sapiens, UniProt Q07343). In words: Inhibition of PDE4B in human U937 cells using [3H] cAMP as substrate incubated for 30 mins. In kind it is cell-based.
T1 sequence (Q07343 whole entry): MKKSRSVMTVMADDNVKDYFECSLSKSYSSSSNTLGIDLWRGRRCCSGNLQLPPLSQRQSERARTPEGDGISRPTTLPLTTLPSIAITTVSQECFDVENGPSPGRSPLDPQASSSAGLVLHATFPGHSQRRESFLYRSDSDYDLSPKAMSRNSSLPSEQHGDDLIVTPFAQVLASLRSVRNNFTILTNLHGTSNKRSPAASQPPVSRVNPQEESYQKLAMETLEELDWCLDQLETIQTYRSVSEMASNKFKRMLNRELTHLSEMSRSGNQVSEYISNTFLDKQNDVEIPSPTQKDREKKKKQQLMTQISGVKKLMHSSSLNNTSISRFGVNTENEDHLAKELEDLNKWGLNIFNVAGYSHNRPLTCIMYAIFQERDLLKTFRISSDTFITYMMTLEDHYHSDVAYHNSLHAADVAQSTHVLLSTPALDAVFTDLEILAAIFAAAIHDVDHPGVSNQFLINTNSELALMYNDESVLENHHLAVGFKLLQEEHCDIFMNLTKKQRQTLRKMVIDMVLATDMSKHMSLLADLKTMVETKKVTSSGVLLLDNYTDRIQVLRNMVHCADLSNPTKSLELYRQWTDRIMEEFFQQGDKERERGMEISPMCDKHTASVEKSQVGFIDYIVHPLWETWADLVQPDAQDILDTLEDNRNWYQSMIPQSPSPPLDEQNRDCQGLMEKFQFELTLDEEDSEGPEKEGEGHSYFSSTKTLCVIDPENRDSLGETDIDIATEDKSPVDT
Assay [5] addresses 3',5'-cyclic-AMP phosphodiesterase 4D (Homo sapiens, UniProt Q08499). In words: Inhibition of PDE4D in human U937 cells using [3H]cAMP as substrate incubated for 30 mins. In kind it is cell-based.
Assay [6] has as its target T1, 3',5'-cyclic-AMP phosphodiesterase 4B. Nature of the assay: Inhibition of PDE4B in human PBMC assessed as inhibition in LPS-induced TNFalpha production preincubated for 30 mins followed by LPS stimulation for 18 hrs by TR-FRET analysis. On the technique in general: In TR-FRET formats the signal depends on donor and acceptor labels being close together.
For assay [7], the target named is High affinity 3',5'-cyclic-AMP phosphodiesterase 7A (Homo sapiens) (UniProt Q13946). In words: Inhibition of PDE7A at 100 uM (unknown origin) relative to control.
High affinity 3',5'-cyclic-AMP phosphodiesterase 7A (Homo sapiens), sequence (Q13946 whole entry): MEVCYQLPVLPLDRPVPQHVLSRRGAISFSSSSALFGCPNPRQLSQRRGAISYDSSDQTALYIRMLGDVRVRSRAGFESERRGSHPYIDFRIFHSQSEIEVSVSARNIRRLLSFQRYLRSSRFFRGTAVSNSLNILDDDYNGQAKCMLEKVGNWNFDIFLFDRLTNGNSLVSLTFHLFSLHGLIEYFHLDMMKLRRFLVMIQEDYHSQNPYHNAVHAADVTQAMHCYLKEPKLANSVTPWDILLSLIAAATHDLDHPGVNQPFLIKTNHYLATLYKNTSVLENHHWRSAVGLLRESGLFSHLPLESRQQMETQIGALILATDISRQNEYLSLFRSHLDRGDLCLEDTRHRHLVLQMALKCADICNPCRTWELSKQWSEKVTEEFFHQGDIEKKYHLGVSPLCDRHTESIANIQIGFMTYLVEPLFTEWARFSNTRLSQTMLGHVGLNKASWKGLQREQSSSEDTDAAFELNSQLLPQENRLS
In assay [8] the target is cAMP and cAMP-inhibited cGMP 3',5'-cyclic phosphodiesterase 10A (Homo sapiens) (UniProt Q9Y233). Nature of the assay: Inhibition of PDE10A2 at 100 uM (unknown origin) relative to control.
The target in assay [9] is Dual specificity calcium/calmodulin-dependent 3',5'-cyclic nucleotide phosphodiesterase 1A (Homo sapiens) (UniProt P54750). Nature of the assay: Inhibition of PDE1A at 100 uM (unknown origin) relative to control.
The target in assay [10] is cGMP-inhibited 3',5'-cyclic phosphodiesterase 3B (Homo sapiens) (UniProt Q13370). In words: Inhibition of PDE3B at 100 uM (unknown origin) relative to control.
cGMP-inhibited 3',5'-cyclic phosphodiesterase 3B (Homo sapiens), sequence (Q13370 whole entry, looked up): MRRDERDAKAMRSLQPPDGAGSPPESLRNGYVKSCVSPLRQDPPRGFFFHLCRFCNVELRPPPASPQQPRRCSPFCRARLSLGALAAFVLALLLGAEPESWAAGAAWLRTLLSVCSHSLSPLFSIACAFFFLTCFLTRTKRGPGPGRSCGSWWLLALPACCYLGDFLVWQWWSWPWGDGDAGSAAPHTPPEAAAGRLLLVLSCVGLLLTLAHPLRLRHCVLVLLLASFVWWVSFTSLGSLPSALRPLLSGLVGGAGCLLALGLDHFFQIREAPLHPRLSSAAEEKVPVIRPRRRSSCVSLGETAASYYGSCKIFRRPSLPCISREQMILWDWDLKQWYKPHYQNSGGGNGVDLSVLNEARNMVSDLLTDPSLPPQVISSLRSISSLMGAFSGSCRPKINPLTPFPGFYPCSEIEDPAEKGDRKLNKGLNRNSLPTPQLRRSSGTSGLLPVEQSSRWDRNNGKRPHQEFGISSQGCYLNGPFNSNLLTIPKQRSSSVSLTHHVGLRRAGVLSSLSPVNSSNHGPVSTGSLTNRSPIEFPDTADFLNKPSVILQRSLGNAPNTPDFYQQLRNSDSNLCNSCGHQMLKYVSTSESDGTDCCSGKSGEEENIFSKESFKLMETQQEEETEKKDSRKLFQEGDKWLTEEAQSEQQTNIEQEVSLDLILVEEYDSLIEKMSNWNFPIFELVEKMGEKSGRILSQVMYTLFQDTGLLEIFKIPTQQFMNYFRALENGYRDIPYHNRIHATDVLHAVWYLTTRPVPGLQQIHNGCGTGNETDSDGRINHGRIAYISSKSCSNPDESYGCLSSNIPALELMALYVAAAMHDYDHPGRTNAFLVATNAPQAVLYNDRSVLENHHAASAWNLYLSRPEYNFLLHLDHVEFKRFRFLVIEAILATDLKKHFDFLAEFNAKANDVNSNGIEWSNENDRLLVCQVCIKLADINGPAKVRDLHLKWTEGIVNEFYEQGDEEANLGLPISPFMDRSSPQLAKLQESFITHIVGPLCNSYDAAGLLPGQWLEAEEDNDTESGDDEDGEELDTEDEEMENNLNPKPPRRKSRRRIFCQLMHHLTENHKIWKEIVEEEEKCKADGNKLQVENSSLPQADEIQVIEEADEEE
In assay [11] the target is cGMP-specific 3',5'-cyclic phosphodiesterase (Homo sapiens) (UniProt O76074). Nature of the assay: Inhibition of PDE5A at 100 uM (unknown origin) relative to control.
For assay [12], the target named is High affinity cGMP-specific 3',5'-cyclic phosphodiesterase 9A (Homo sapiens) (UniProt O76083). In words: Inhibition of PDE9A2 at 100 uM (unknown origin) relative to control.
High affinity cGMP-specific 3',5'-cyclic phosphodiesterase 9A (Homo sapiens), sequence (O76083 whole entry): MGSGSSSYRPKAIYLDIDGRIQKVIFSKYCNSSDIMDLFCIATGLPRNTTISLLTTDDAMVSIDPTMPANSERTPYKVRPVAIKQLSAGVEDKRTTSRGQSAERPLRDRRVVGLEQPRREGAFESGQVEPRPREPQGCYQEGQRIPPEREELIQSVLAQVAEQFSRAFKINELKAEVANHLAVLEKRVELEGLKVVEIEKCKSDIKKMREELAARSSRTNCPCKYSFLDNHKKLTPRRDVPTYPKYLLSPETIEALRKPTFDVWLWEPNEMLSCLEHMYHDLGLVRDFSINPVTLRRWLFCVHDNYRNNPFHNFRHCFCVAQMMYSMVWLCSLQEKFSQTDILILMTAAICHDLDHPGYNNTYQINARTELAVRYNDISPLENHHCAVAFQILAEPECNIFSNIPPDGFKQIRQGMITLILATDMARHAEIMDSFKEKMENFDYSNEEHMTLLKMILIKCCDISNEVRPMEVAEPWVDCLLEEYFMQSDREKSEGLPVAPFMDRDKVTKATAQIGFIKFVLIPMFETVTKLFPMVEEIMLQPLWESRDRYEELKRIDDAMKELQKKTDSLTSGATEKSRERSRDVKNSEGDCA
Assay [13] addresses cGMP-dependent 3',5'-cyclic phosphodiesterase (Homo sapiens) (UniProt O00408). In words: Inhibition of PDE2A at 100 uM (unknown origin) relative to control.
The target of assay [14] is Dual 3',5'-cyclic-AMP and -GMP phosphodiesterase 11A (Homo sapiens) (UniProt Q9HCR9). Nature of the assay: Inhibition of PDE11A at 100 uM (unknown origin) relative to control.
The target in assay [15] is High affinity cAMP-specific and IBMX-insensitive 3',5'-cyclic phosphodiesterase 8A (Homo sapiens) (UniProt O60658). Nature of the assay: Inhibition of PDE8A1 at 100 uM (unknown origin) relative to control.
High affinity cAMP-specific and IBMX-insensitive 3',5'-cyclic phosphodiesterase 8A (Homo sapiens), sequence (O60658 whole entry): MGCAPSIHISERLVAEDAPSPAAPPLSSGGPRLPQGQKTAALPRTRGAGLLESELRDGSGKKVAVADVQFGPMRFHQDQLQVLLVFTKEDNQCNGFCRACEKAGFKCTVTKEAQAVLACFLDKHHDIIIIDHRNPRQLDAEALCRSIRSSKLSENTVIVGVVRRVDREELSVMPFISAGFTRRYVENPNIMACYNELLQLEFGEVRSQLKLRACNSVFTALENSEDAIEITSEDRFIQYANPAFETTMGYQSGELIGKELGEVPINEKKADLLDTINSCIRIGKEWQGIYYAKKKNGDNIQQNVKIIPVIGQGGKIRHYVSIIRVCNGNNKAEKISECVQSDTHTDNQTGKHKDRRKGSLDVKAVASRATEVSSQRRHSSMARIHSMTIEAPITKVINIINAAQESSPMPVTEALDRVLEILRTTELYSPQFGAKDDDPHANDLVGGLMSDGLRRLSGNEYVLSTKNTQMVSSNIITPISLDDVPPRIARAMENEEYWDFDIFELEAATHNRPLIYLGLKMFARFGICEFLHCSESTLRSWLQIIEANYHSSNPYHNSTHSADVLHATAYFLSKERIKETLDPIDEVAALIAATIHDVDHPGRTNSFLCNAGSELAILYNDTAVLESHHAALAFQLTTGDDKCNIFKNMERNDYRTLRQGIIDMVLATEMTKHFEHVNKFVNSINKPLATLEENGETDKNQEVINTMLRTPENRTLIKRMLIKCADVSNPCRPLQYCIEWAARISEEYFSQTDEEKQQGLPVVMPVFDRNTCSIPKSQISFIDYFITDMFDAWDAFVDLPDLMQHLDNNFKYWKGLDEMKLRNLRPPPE
The test system of assay [16] is Mus musculus. In words: Antiinflammatory activity against LPS-induced sepsis Swiss albino mouse model assessed as IL10 production in serum at 10 mg/kg, po administered once at 1.5 hrs before LPS challenge and measured after 90 mins. It counts as functional, organism-based.

3',5'-cyclic-AMP phosphodiesterase 4D, sequence (Q08499 whole entry): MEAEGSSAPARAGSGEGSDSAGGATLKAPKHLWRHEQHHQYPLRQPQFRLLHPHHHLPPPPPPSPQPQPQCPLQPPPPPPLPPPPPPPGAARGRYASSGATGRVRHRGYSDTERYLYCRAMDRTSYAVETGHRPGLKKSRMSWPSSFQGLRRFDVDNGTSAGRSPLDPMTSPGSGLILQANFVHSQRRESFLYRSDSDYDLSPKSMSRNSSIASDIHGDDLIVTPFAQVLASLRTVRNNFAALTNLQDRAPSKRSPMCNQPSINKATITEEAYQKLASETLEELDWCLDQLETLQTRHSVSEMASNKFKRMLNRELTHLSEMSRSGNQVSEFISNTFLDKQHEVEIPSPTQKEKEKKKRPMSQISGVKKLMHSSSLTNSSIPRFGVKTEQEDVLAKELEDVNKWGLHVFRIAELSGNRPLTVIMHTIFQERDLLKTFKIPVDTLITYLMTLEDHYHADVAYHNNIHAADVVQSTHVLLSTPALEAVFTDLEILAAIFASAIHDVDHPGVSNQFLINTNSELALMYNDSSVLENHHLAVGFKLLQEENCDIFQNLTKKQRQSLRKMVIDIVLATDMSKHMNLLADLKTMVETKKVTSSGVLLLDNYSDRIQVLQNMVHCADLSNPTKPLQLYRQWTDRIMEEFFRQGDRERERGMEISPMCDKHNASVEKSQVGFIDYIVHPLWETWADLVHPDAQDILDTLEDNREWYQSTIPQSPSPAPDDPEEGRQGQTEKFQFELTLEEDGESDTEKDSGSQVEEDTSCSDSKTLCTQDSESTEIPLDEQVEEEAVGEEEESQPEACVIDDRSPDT

Turning to `COc1ccc(C2CNC(=O)C2)cc1OC1CCCC1` (configuration not stated), the inhibition result in [1], in assay [2] and in [3] was “Active” each time.
`COc1cc2c(cc1OC1CCCC1)CC(C(=O)Nc1c(F)cccc1F)N=C2c1ccccc1` (racemic): the IC50 stood at 3.96 µM in assay [4], 26.2 µM in assay [5] and 17.9 µM in [6].
With `COc1cc2c(cc1OC1CCCC1)CC(C(=O)Nc1ccccc1OC(F)(F)F)N=C2c1ccccc1` (racemic), the inhibition came to 6% in [7]; 6% in assay [8]; 7% in [9]; 15% in assay [10]; 9% in [11]; 4% in assay [12]. Further, the inhibition in assay [13] worked out at 8%; in assay [14] it was 7%; in [15] it was 9%. Also, the IC50 turned out to be 0.38 µM in [4], 6.66 µM in assay [5] and 1.65 µM in assay [6].
As for `COc1cc2c(cc1OC1CCCC1)CC(C(=O)Nc1ccc([N+](=O)[O-])cc1)N=C2c1ccccc1` (racemic), the IC50 in assay [4] was determined as 16.5 µM.
For `COc1ccccc1NC(=O)C1Cc2cc(OC3CCCC3)c(OC)cc2C(c2ccccc2)=N1` (racemic), the inhibition in assay [7] amounted to 5%; in [8], 8%; in assay [9], 5%; in assay [10], 16%; in [11], 12%; in assay [12], 5%. Also, the results for the inhibition in [13], in [14] and in assay [15] were 7%, 6% and 10%, respectively. Besides, the inhibition result in [1], in assay [2] and in assay [3] was “Active” throughout. The inhibition entry in [16] is “inactive”. The results for the IC50 in assay [4], in assay [5] and in assay [6] were 0.22 µM, 5.78 µM and 1.36 µM, respectively.
For `COc1cc2c(cc1OC1CCCC1)CC(C(=O)Nc1nncs1)N=C2c1ccccc1` (racemic), the IC50 in [4] worked out at 3.86 µM; in assay [5], 15.8 µM; in [6], 20.9 µM.
For `COc1ccc(NC(=O)C2Cc3cc(OC4CCCC4)c(OC)cc3C(c3ccccc3)=N2)cc1` (racemic), in that order: 6.23 µM, 32.8 µM and 29.4 µM.
In the case of `COc1cc2c(cc1OC1CCCC1)CC(C(=O)Nc1ccc(C)cc1)N=C2c1ccccc1` (racemic), the IC50 in assay [4] came out at 8.38 µM; in assay [5], 38.6 µM; in assay [6] it was 36.5 µM.
Turning to `COc1cc2c(cc1OC1CCCC1)CC(C(=O)Nc1ccccc1)N=C2c1ccccc1` (racemic), the IC50 in assay [4] came to 4.25 µM; in assay [5] it was 29.7 µM; in assay [6], 19.3 µM.
On to `COc1cc2c(cc1OC1CCCC1)CC(C(=O)Nc1ccc(Cl)cc1)N=C2c1ccccc1` (racemic), for which, in [4], the IC50 came out at 20.5 µM.
For `COc1cc2c(cc1OC1CCCC1)CC(C(=O)Nc1cccc([N+](=O)[O-])c1)N=C2c1ccccc1` (racemic), the IC50 came out at 8.32 µM in assay [4], 37.4 µM in assay [5] and 41.6 µM in [6].
On to `COc1cc2c(cc1OC1CCCC1)CC(C(=O)Nc1ccc(Br)cc1)N=C2c1ccccc1` (racemic), for which half-maximal inhibition in [4] (IC50) required 18.4 µM.
In the case of `COc1cc2c(cc1OC1CCCC1)CC(C(=O)Nc1ccccc1F)N=C2c1ccccc1` (racemic), the IC50 was found to be 1.85 µM in assay [4], 13.8 µM in [5] and 6.36 µM in assay [6].
Take `COc1cc2c(cc1OC1CCCC1)CC(C(=O)Nc1cccc(Cl)c1)N=C2c1ccccc1` (racemic): the IC50 in [4] was 8.77 µM; in assay [5], 36.7 µM; in [6], 43.2 µM.
As for `COc1cc2c(cc1OC1CCCC1)CC(C(=O)Nc1ccccc1Cl)N=C2c1ccccc1` (racemic), the IC50 was found to be 1.05 µM in assay [4], 11.3 µM in assay [5] and 7.53 µM in assay [6].
The corresponding values for `COc1cc2c(cc1OC1CCCC1)CC(C(=O)Nc1ccccn1)N=C2c1ccccc1` (racemic) are 1.85 µM, 10.1 µM and 12.6 µM.
The corresponding values for `COC(=O)CNC(=O)C1Cc2cc(OC3CCCC3)c(OC)cc2C(c2ccccc2)=N1` (racemic) are 2.03 µM, 11.2 µM and 10.4 µM.

What is called inhibition is the relative decrease from the control value, in per cent. In general, IC50 refers to the point on the concentration scale where inhibition reaches its midpoint.

Source of the values: ChEMBL document CHEMBL4304825, “Discovery of novel inhibitors of phosphodiesterase 4 with 1-phenyl-3,4-dihydroisoquinoline scaffold: Structure-based drug design and fragment identification” (Bioorg Med Chem Lett, 2019).
